Tests used:
[1] = test system: arthritis caused by Freud adjuvans (pad volume); assay: Adjunct-Arthritis (C. M. PEARSON); format: in vivo, rat (wistar); settings: 7th day p.i.
[2] = test system: arthritis caused by Freud adjuvans (pad volume); assay: Adjunct-Arthritis (C. M. PEARSON); format: in vivo, rat (wistar)
Experimental: There are used 10 wistar rats each weighing 120 to 150 g. per each dose. The same number of animals is used as control group. An arthritis is caused by subplantar injection of 0.5 ml. of Freud adjuvans. The test duration is 17 days. At the beginning of the test the volume of the pads of all for legs is determined as starting value. The volume is further determined on the 8th, 14th and 17th day of the test. In the evaluation, the difference between the pad volume at the beginning and at the end of the test is determined both in the test group as well as in the control group. The test result, i.e. the inhibition of the growth of the pad volume is expressed in percent.

[3] = test system: edema in hindpads of rats; assay: rat pad edema test (HILLEBRECHT, Carragenine); format: in vivo; settings: 3 hours
Experimental: The antiphlogistic properties are determined in the rat pad edema test according to HILLEBRECHT (J. HILLEBRECHT, Arzneim. Forsch. 1954, vol. 4, p. 607). In this test, the formation of an edema is caused in one of the hindpads of rats weighing each 200 to 250 grams, by subplantar injection of Carragenine (0.5% in 0.9% NaCl solution) in an amount of 0.1 ml. solution per each pad. After administration of the test compound in an amount which in general should not be larger than a volume of 10 ml. per kg. body weight, the volume of the pad is determined in an overflow. 3 hours after administration of the test compound the final volume is determined. The test is carried out with 10 test animals and 10 control animals of one sex per each dose and is repeated with the same number of animals of the other sex. For evaluation purposes the percent inhibition of edema formation is determined over the control group.

[4] = test system: granuloma in the connective tissue; assay: Granuloma test (cotton-pellet-test) according to R. MEIER; format: in vivo, rat
Text: In this test, cotton pellets impregnated with crotone oil are implanted subcutaneously into the test animals (rats) which impregnated cotton pellets cause the formation of granuloma in the connective tissue. After killing of the test animals, the granuloma are separated and recovered and are weighed as wet or dry tissue. The anti-proliferatic activity of an antiphlogistic agent is expressed in a lower granuloma weight in comparison to untreated control animals.

[5] = test system: ulcus formation of the stomach; assay: Ulcus test; format: in vivo, rat (wistar); settings: 3.5 hours
Experimental: The determination of ulcus formation is carried out according to W. J. R. WHITTLE, Brit.J.Pharmacology 1975, vol. 55, pgs. 242 to 243; L. MARIANI, Europ. J. Toxicol. Eviron, 1975, vol. 8, pgs. 335 to 339; R. MENGUY and L. DESBAILLETS, Proc.Soc.Exp.Bio., vol. 125, p. 1108. In this test, 10 female and 10 male wistar rats are used each weighing 120 to 150 g. and which had been fed only with […] for 2 days and were kept thereafter without feeding for 16 hours. The formation of a bleeding ulcus of the stomach was provocated by oral application of the compound to be tested. 3.5 hours after administration the test animals were killed, the stomach was separated, opened along the large curvature and fixed to a polystyrol plate. There is determined the number and size of average ulcus formation both in the test group and in the control group.

[6] = 0.1 mg./kg. p.o., 14th day p.i.
[7] = 0.1 mg./kg. p.o., 17th day p.i.

## COc1ccc2c(c1)c(CC(=O)O)c(C)n2C(=O)c1ccc(Cl)cc1 [Indometacin, reference compound]
[1]; 0.1 mg./kg. p.o.
  inhibitory effect (growth of pad volume): -32%
[1]; 1 mg./kg. p.o.
  inhibitory effect (growth of pad volume): -50%
[1]; 10 mg./kg. p.o.
  lethality given in place of inhibitory effect: lethal
[2]; [6]
  inhibitory effect (growth of pad volume): -25%
[2]; [7]
  inhibitory effect (growth of pad volume): -37%
[2]; 1 mg./kg. p.o., 14th day p.i.
  inhibitory effect (growth of pad volume): -40%
[2]; 1 mg./kg. p.o., 17th day p.i.
  inhibitory effect (growth of pad volume): -40%
[2]; 10 mg./kg. p.o., 14th day p.i.
  lethality given in place of inhibitory effect: lethal
[2]; 10 mg./kg. p.o., 17th day p.i.
  lethality given in place of inhibitory effect: lethal
[3]; 1.0 mg./kg. i.m.
  Edema inhibition, inhibitory effect: -9%
[3]; 3 mg./kg. i.m.
  Edema inhibition, inhibitory effect: -23%
[3]; 3.8 mg./kg. p.o.
  Edema inhibition, inhibitory effect: -26%
[3]; 5.6 mg./kg. p.o.
  Edema inhibition, inhibitory effect: -45%
[3]; 8.3 mg./kg. p.o.
  Edema inhibition, inhibitory effect: -57%
[3]; 10 mg./kg. i.m.
  Edema inhibition, inhibitory effect: -33%
[4]; 1 mg./kg. p.o.
  Decrease of granuloma weight: -21%
[4]; 3.2 mg./kg. p.o.
  Decrease of granuloma weight: -7%
[4]; 5.6 mg./kg. p.o.
  Decrease of granuloma weight: -6%
Toxicity in mice, p.o.; mouse, in vivo, po
  LD50: 19 mg/kg
Toxicity in mice, p.o.; mouse, in vivo, po, 19 mg/kg
  mortality: 50%
Toxicity in rats, p.o.; rat, in vivo, po
  LD50: 38 mg/kg
Toxicity in rats, p.o.; rat, in vivo, po, 38 mg/kg
  mortality: 50%

## O=c1c2ccccc2[se]n1-c1ccccc1 [2-Phenyl-1.2-benzisoselenazol-3(2H)-one, 2-phenyl-1.2-benzisoselenazol-3(2H)-one]
[1]; 0.1 mg./kg. p.o.
  inhibitory effect (growth of pad volume): -22%
[1]; 1 mg./kg. p.o.
  inhibitory effect (growth of pad volume): -46%
[1]; 10 mg./kg. p.o.
  inhibitory effect (growth of pad volume): -30%
[2]; [6]
  inhibitory effect (growth of pad volume): -10%
[2]; [7]
  inhibitory effect (growth of pad volume): -13%
[2]; 1 mg./kg. p.o., 14th day p.i.
  inhibitory effect (growth of pad volume): -36%
[2]; 1 mg./kg. p.o., 17th day p.i.
  inhibitory effect (growth of pad volume): -33%
[2]; 10 mg./kg. p.o., 14th day p.i.
  inhibitory effect (growth of pad volume): -22%
[2]; 10 mg./kg. p.o., 17th day p.i.
  inhibitory effect (growth of pad volume): -24%
[2]; at higher doses, p.o.
  toxicity effects: no toxicity effects occur
[3]; 0.1 mg./kg. i.m.
  Edema inhibition, inhibitory effect: -23%
[3]; 0.1 mg./kg. p.o.
  Edema inhibition, inhibitory effect: -1%
[3]; 1.0 mg./kg. i.m.
  Edema inhibition, inhibitory effect: -62%
[3]; 1.0 mg./kg. p.o.
  Edema inhibition, inhibitory effect: -57%
[3]; 10 mg./kg. i.m.
  Edema inhibition, inhibitory effect: -35%
[3]; 10 mg./kg. p.o.
  Edema inhibition, inhibitory effect: -40%
[4]; 0.1 mg./kg. p.o.
  Decrease of granuloma weight: -22%
[4]; 1 mg./kg. p.o.
  Decrease of granuloma weight: -21%
[4]; 10 mg./kg. p.o.
  Decrease of granuloma weight: -20%
Toxicity in mice, p.o.; mice, p.o.
  dose at lethality 0%: > 2,150 mg./Kg.
Toxicity in mice, p.o.; mouse, in vivo, po, 2150 mg/kg
  mortality: 0%
Toxicity in rats, p.o.; rat, in vivo, po, 4600 mg/kg
  mortality: 0%
Toxicity in rats, p.o.; rats, p.o.
  dose at lethality 0%: 4,600 mg./kg.
[5]; 1 mg./kg. p.o.
  Ulcus formation, effectiveness: 0
[5]; 10 mg./kg. p.o.
  Ulcus formation, effectiveness: 0
[5]; 100 mg./kg. p.o.
  Ulcus formation, effectiveness: 0

— patent US4352799A, “2-Phenyl-1,2-benzisoselenazol-3(2H)-one containing pharmaceutical preparations and process for the treatment of rheumatic diseases” (A. Nattermann & Cie GmbH, priority 1980, dated 1982)
